How the values were obtained:
[1] = biological target: T1, A1 adenosine receptor (Cavia porcellus, UniProt P47745); parameters: a Langendorff guinea pig heart preparation; from tissue; host or cells: isolated perfused guinea pig heart (Langendorff); settings: heart paced at 260 beats/min; data of U.S. Pat. No. 5,278,150; read-out: EC50—SQPR (A1); cited from earlier work
T1 sequence (P47745 1-326): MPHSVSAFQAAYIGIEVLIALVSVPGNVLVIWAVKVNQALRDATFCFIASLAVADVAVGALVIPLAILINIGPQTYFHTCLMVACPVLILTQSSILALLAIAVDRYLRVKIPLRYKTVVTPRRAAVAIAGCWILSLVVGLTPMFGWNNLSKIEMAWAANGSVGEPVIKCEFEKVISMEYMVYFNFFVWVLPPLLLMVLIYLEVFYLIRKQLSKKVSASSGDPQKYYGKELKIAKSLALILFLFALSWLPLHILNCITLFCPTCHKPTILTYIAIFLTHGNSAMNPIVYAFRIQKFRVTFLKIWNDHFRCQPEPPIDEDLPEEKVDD

[2] = biological target: T2, A2A adenosine receptor (Cavia porcellus, UniProt P46616); experiment: Langendorff guinea pig heart preparation, coronary vasodilation (coronary flow); settings: quotient EC50-SQPR / EC50-CF
Procedure: The A1/A2A selectivity in Table 1 was calculated as the quotient of the EC50 of stimulus-QRS prolongation divided by the EC50 of coronary vasodilation.

[3] = biological target: T2, A2A adenosine receptor; parameters: a Langendorff guinea pig heart preparation; from tissue; host or cells: isolated perfused guinea pig heart (Langendorff), coronary vasculature; settings: heart paced at 260 beats/min; data of U.S. Pat. No. 5,278,150; read-out: EC50—CF (A2A); cited from earlier work
[4] = Dose-selection study of coronary hyperemia (CBFV by Doppler guide wire) in non-asthmatic patients at cardiac catheterization; settings: intracoronary bolus injections before binodenoson
Procedure: Coronary blood flow velocity reserve (CBFVR) was established by intracoronary (IC) bolus injections of adenosine just prior to administration of binodenoson to allow a direct comparison of the magnitude of responses.
Patients presenting for cardiac catheterization were screened for eligibility and provided informed consent prior to sedation. Final eligibility was determined by the investigator during diagnostic catheterization.
Following completion of the diagnostic catheterization procedure and confirmation of all eligibility criteria, the Doppler guide wire was introduced into an accessible coronary artery and manipulated until a stable signal was obtained.
Drug administration: All usual catheterization procedural medications including IC nitroglycerin, heparin, anxiolytics and analgesics, were allowed. […] Binodenoson doses were then introduced into a peripheral vein via an indwelling catheter.
Measurements: Coronary blood flow velocity (CBFV) was measured as continuous pulsatile (systolic and diastolic) velocity (cm/sec) with the Doppler guide wire introduced via a guiding catheter. HR was derived from the ECG signal. SBP and diastolic blood pressure (DBP) were recorded directly from the catheter sheath. For each IC adenosine injection, CBFVR was calculated by dividing the peak post-injection CBFV value by the respective baseline CBFV value. Each patient's maximal calculated CBFVR was used as a benchmark to which CBFV responses to binodenoson were compared. For each binodenoson dose, baseline CBFV (post-IC adenosine), peak CBFV, time following dose start time to achieve peak CBFV and percents of CBFVR (calculated as the ratio of CBFV change from baseline following binodenoson administration vs CBFVR) at each point were calculated. Rate pressure product (RPP) and coronary vascular resistance (CVR) were derived at each time point (see formulas in Table 10). […] Vital signs were measured again approximately 3 to 4 hours after dosing or prior to hospital discharge. Patients returned for a follow-up visit 2 to 4 days following catheterization that included vital signs, an abbreviated physical examination, a 12-lead ECG, blood chemistry and hematology assessments and an assessment of any late-emerging adverse events.
Adverse events were monitored throughout the study.
Statistical analyses: All pharmacodynamic and safety data were analyzed using the intent-to-treat (ITT) population, which included all patients who received any amount of study drug. A paired t test was used to assess the significance of within-treatment differences (peak vs baseline) in CBFV, vital signs and calculated CVR and RPP; repeated comparisons were corrected using the Bonferroni-Holm method. The statistical significance of differences among treatment groups was evaluated using an analysis of variance (ANOVA) model that included treatment and investigator interactions.

T2 sequence (P46616 whole entry, the tested form may be a part): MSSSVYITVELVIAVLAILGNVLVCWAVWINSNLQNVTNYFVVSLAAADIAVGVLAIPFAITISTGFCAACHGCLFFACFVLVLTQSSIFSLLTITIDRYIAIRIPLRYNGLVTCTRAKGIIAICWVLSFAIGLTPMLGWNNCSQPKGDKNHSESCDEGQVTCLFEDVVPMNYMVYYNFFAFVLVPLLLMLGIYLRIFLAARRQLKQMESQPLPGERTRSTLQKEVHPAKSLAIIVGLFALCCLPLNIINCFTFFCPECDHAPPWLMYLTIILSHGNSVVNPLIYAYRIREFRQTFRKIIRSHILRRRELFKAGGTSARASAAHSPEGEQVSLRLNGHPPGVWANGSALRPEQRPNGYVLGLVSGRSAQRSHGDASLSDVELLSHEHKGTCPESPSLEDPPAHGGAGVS

For `Nc1nc(N/N=C/C2CC=CCC2)nc2c1ncn2[C@@H]1O[C@H](CO)[C@@H](O)[C@H]1O` (stereo in doubt) [B, 2-{2-[(Cyclohex-3-enyl)methylene]hydrazino}adenosine], the EC50 [1] is listed as 13.8 µM.
In the case of `Nc1nc(N/N=C/c2ccccc2)nc2c1ncn2[C@@H]1O[C@H](CO)[C@@H](O)[C@H]1O` (stereo in doubt) [I, 2-[2-(Benzylidene) hydrazino]adenosine], the “A1/A2A Selectivity” value [2] is given as 36,300, the EC50 [1] is given as 83.2 µM and the EC50 [3] is given as 0.00229 µM.
With `CC(C)CCC=NNc1nc(N)c2ncn([C@@H]3O[C@H](CO)[C@@H](O)[C@H]3O)c2n1` [C, 2-[2-(4-methylpentylidene)hydrazino]adenosine] the “A1/A2A Selectivity” value [2] was 44,700.
In the case of `Nc1ncnc2c1ncn2[C@@H]1O[C@H](CO)[C@@H](O)[C@H]1O` [Compare A, Adenosine, reference compound], the “effect on CBFV” value [4] is reported as “transient increases” and the “effects on SBP, DBP, or HR” value [4] is reported as “no consistent effects”.
In the case of `Nc1nc(N)c2ncn([C@@H]3O[C@H](CO)[C@@H](O)[C@H]3O)c2n1` [Compare B, 2-Amino-adenosine, reference compound], the “A1/A2A Selectivity” value [2] is given as 50 and the EC50 [3] is given as 0.22 µM.
For `NNc1nc(N)c2ncn([C@@H]3O[C@H](CO)[C@@H](O)[C@H]3O)c2n1` [Compare C, 2-Hydrazino-adenosine, reference compound], the “A1/A2A Selectivity” value [2] was 250.
For `CCCCC(CC)CC=NNc1nc(N)c2ncn([C@@H]3O[C@H](CO)[C@@H](O)[C@H]3O)c2n1` (some centres unmarked) [D, 2-[2-(3-ethylheptylidene)hydrazino]adenosine], the EC50 [1] is listed as 9.77 µM.
In the case of `CCCCCC=NNc1nc(N)c2ncn([C@@H]3O[C@H](CO)[C@@H](O)[C@H]3O)c2n1` [E, 2-[2-(hexylidene)hydrazino]adenosine], the “A1/A2A Selectivity” value [2] is reported as 38,000.
In the case of `CCCC(CCC)CCC=NNc1nc(N)c2ncn([C@@H]3O[C@H](CO)[C@@H](O)[C@H]3O)c2n1` [G, 2-[2-(4-propylheptylidene)hydrazino]adenosine], the “A1/A2A Selectivity” value [2] is given as 37,200, the EC50 [1] is given as 66.1 µM and the EC50 [3] is given as 0.00178 µM.
With `Nc1nc(NN=Cc2ccc(F)cc2)nc2c1ncn2[C@@H]1O[C@H](CO)[C@@H](O)[C@H]1O` [J, 2-[2-(4-Fluorobenzylidene) hydrazino]adenosine] the “A1/A2A Selectivity” value [2] was 5,100.
For `Cc1ccc(C=NNc2nc(N)c3ncn(C4OC(CO)C(O)C4O)c3n2)cc1` (centres unmarked) [K, 2-[2-(4-Methylbenzylidine) hydrazino]adenosine], the EC50 [1] is given as 39.8 µM.
For `Cc1cccc(C=NNc2nc(N)c3ncn(C4OC(CO)C(O)C4O)c3n2)c1` (centres unmarked) [L, 2-[2-(3-Methylbenzylidine)hydrazino]adenosine], the “A1/A2A Selectivity” value [2] is listed as 3,800, the EC50 [1] is listed as 17 µM and the EC50 [3] is listed as 0.0044 µM.

— patent US20110002843A1, “METHOD OF DETECTING MYOCARDIAL DYSFUNCTION IN PATIENTS HAVING A HISTORY OF ASTHMA OR BRONCHOSPASM” (priority 2005, published 2011)
